The subject of the experiment is P388 leukemia ip, CD2F1 mice, survival T/C. The experiment is described as follows: NCI In Vivo Anticancer Drug Screen. Data for tumor model P388 Leukemia (intraperitoneal) in CD2F1 (CDF1) mice. To be noted: endpoint: median survival time, higher = longer survival. The essentials:
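Mice carrying the transplanted tumor received test compound or vehicle. Survival was recorded in each group, and the value is the treated-group measurement divided by that of the vehicle-treated control group.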

Setting [1] is: dose: 50.0 mg/kg/injection, schedule: Q01DX005 (ip), vehicle: Klucel (hydroxypropylcellulose) (HPC).
Setting [2] is: dose: 50.0 mg/kg/injection, schedule: Q01DX005 (ip), vehicle: saline with Tween-80.
[3] abbreviates: dose: 100.0 mg/kg/injection, schedule: Q01DX005 (ip), vehicle: saline with Tween-80.
The mark [4] stands for this setting: dose: 200.0 mg/kg/injection, schedule: Q01DX005 (ip), vehicle: saline with Tween-80.
Setting [5] is: dose: 50.0 mg/kg/injection, schedule: Q01DX009 (ip), vehicle: saline.
Where [6] appears, read: dose: 100.0 mg/kg/injection, schedule: Q01DX009 (ip), vehicle: saline.
Setting [7] is: dose: 12.5 mg/kg/injection, schedule: Q01DX009 (ip), vehicle: saline.
[8] abbreviates: dose: 100.0 mg/kg/injection, schedule: Q01DX009 (ip), vehicle: saline with Tween-80.
Where [9] appears, read: dose: 200.0 mg/kg/injection, schedule: Q01DX009 (ip), vehicle: saline with Tween-80.
Setting [10] is: dose: 6.25 mg/kg/injection, schedule: Q01DX009 (ip), vehicle: saline with Tween-80.
Setting [11] is: dose: 60.0 mg/kg/injection, schedule: Q01DX005 (ip), vehicle: saline with Tween-80.
Setting [12] is: dose: 120.0 mg/kg/injection, schedule: Q01DX005 (ip), vehicle: saline with Tween-80.
The mark [13] stands for this setting: dose: 240.0 mg/kg/injection, schedule: Q01DX005 (ip), vehicle: saline with Tween-80.
[14] abbreviates: dose: 200.0 mg/kg/injection, schedule: Q01DX009 (ip), vehicle: saline.

“And” between values parts separate entries of the source, which are not always exact repeats. Equal values may be shown once. Inconclusive results and toxic doses are left out.

On to `Cc1cc(N/N=C/c2ccc3c(c2)OCO3)c2cc3c(cc2n1)OCO3`, for which the T/C is, setting by setting: (dose: 3.12 mg/kg/injection, schedule: Q01DX005 (ip), vehicle: Klucel (hydroxypropylcellulose) (HPC)) 104 % of control; (dose: 6.25 mg/kg/injection, schedule: Q01DX005 (ip), vehicle: Klucel (hydroxypropylcellulose) (HPC)) 95 % of control; (dose: 12.5 mg/kg/injection, schedule: Q01DX005 (ip), vehicle: Klucel (hydroxypropylcellulose) (HPC)) 102 % of control and 95 % of control; (dose: 25.0 mg/kg/injection, schedule: Q01DX005 (ip), vehicle: Klucel (hydroxypropylcellulose) (HPC)) 107 % of control and 114 % of control; under setting [1], 103 % of control.
With `O=C1C2C3CCC(C2C(=O)N1COP(=O)(O)O)C1C2C(=O)N(COP(=O)(O)O)C(=O)C2C31` (configuration not stated), the T/C (dose: 40.0 mg/kg/injection, schedule: Q01DX009 (ip), vehicle: water) was 103 % of control; the T/C (dose: 80.0 mg/kg/injection, schedule: Q01DX009 (ip), vehicle: water) is 105 % of control; the T/C (dose: 160.0 mg/kg/injection, schedule: Q01DX009 (ip), vehicle: water) is 105 % of control; the T/C (dose: 320.0 mg/kg/injection, schedule: Q01DX009 (ip), vehicle: water) is 124 % of control.
For `CC1CCCN2C(=O)CN(Cc3ccccc3)CC(=O)N12` (configuration not stated), the T/C reads like this: under setting [2], 100 % of control; under setting [3], 100 % of control; under setting [4], 100 % of control.
For the compound `CCCCCNCC(=O)O`, the T/C by setting is: (dose: 50.0 mg/kg/injection, schedule: Q01DX005 (ip), vehicle: saline) 91 % of control; (dose: 100.0 mg/kg/injection, schedule: Q01DX005 (ip), vehicle: saline) 96 % of control.
In the case of `CCOC(=O)C(NC(=O)C(Cl)Cl)C(O)c1ccccc1` (configuration not stated), the T/C under setting [2] was 100 % of control, the T/C under setting [3] was 100 % of control and the T/C under setting [4] is 89 % of control.
For the compound `CNCCN1CCC(Cc2ccccc2)CC1`, the T/C is, setting by setting: under setting [5], 100 % of control; under setting [6], 100 % of control.
Consider `COC(=O)CCC(C(C)=O)C(=O)OC` (configuration not stated), for which the T/C by setting is: (dose: 60.0 mg/kg/injection, schedule: Q01DX005 (ip), vehicle: saline) 105 % of control; (dose: 120.0 mg/kg/injection, schedule: Q01DX005 (ip), vehicle: saline) 110 % of control; (dose: 240.0 mg/kg/injection, schedule: Q01DX005 (ip), vehicle: saline) 107 % of control.
With `Cc1cnc(C)c(NN=O)n1`, the T/C was 101 % of control and 108 % of control (dose: 3.12 mg/kg/injection, schedule: Q01DX009 (ip), vehicle: saline); 116 % of control and 122 % of control (dose: 6.25 mg/kg/injection, schedule: Q01DX009 (ip), vehicle: saline); 117 % of control under setting [7].
`O=C1C(C(=NC2CCCCC2)c2ccccc2)=C(O)c2ccccc21`: the T/C (dose: 100.0 mg/kg/injection, schedule: Q04DX002 (ip), vehicle: saline with Tween-80) was 104 % of control and the T/C (dose: 200.0 mg/kg/injection, schedule: Q04DX002 (ip), vehicle: saline with Tween-80) was 100 % of control.
Turning to `O=C(c1ccccc1)C12CCC(CC1)CC2`, the T/C was 94 % of control (dose: 50.0 mg/kg/injection, schedule: Q01DX009 (ip), vehicle: Klucel (hydroxypropylcellulose) (HPC)); 94 % of control (dose: 100.0 mg/kg/injection, schedule: Q01DX009 (ip), vehicle: Klucel (hydroxypropylcellulose) (HPC)); 109 % of control (dose: 200.0 mg/kg/injection, schedule: Q01DX009 (ip), vehicle: Klucel (hydroxypropylcellulose) (HPC)).
Regarding `CCOC(=O)C(=C/C=C/N(C)C)C(=O)OCC`, the T/C (dose: 100.0 mg/kg/injection, schedule: Q01DX001 (ip), vehicle: saline) is 100 % of control and the T/C (dose: 200.0 mg/kg/injection, schedule: Q01DX001 (ip), vehicle: saline) was 104 % of control.
Take `CCOC(=O)C1=C(c2ccco2)NN=C(c2ccccc2)C1`: the T/C is 101 % of control under setting [2], 103 % of control under setting [3] and 94 % of control under setting [4].
Consider `O=C([O-])[O-].O=[N+]([O-])O.[Co+3].[NH2-].[NH2-].[NH2-].[NH2-]`, for which the T/C under setting [8] was 122 % of control; the T/C under setting [9] is 113 % of control; the T/C (dose: 400.0 mg/kg/injection, schedule: Q01DX009 (ip), vehicle: saline with Tween-80) is 100 % of control.
With `O=C(O)c1cc[c]([Hg][S]c2ncnc3nc[nH]c23)cc1`, the T/C reads like this: (dose: 1.56 mg/kg/injection, schedule: Q01DX009 (ip), vehicle: saline with Tween-80) 106 % of control; (dose: 3.13 mg/kg/injection, schedule: Q01DX009 (ip), vehicle: saline with Tween-80) 110 % of control and 123 % of control; under setting [10], 100 % of control; (dose: 12.5 mg/kg/injection, schedule: Q01DX009 (ip), vehicle: saline with Tween-80) 100 % of control; (dose: 25.0 mg/kg/injection, schedule: Q01DX009 (ip), vehicle: Klucel (hydroxypropylcellulose) (HPC)) 121 % of control.
On to `CC1CCCC(C)N1C(=O)c1ccccc1` (configuration not stated), for which the T/C was 98 % of control under setting [11], 97 % of control under setting [12] and 96 % of control under setting [13].
For the compound `C/C=C/C[P+](CC)(c1ccccc1)c1ccccc1`, the T/C was 103 % of control (dose: 0.78 mg/kg/injection, schedule: Q01DX009 (ip), vehicle: saline); 97 % of control (dose: 1.56 mg/kg/injection, schedule: Q01DX009 (ip), vehicle: saline); 112 % of control (dose: 3.13 mg/kg/injection, schedule: Q01DX009 (ip), vehicle: saline).
Turning to `CSc1ccnc2ccccc12`, the T/C is 103 % of control (dose: 12.5 mg/kg/injection, schedule: Q01DX009 (ip), vehicle: other); 118 % of control (dose: 25.0 mg/kg/injection, schedule: Q01DX009 (ip), vehicle: other); 114 % of control (dose: 50.0 mg/kg/injection, schedule: Q01DX009 (ip), vehicle: other).
On to `CN(c1ccccc1)c1c2c(oc(=O)c1Cl)-c1ccccc1SC2`, for which the T/C reads like this: under setting [10], 91 % of control; (dose: 25.0 mg/kg/injection, schedule: Q01DX009 (ip), vehicle: saline with Tween-80) 93 % of control; under setting [9], 93 % of control.
`C=C(C)CC(C)/C(=N\N(C)C)c1ccccc1` (configuration not stated): the T/C runs as follows: under setting [5], 98 % of control; under setting [6], 100 % of control; under setting [14], 100 % of control.
For `Cn1c(-c2ccc3c(c2)OCO3)nn(CN2CCOCC2)c1=S`, the T/C by setting is: under setting [1], 97 % of control; (dose: 100.0 mg/kg/injection, schedule: Q01DX005 (ip), vehicle: Klucel (hydroxypropylcellulose) (HPC)) 100 % of control; (dose: 200.0 mg/kg/injection, schedule: Q01DX005 (ip), vehicle: Klucel (hydroxypropylcellulose) (HPC)) 107 % of control.
With `COc1cc2ccc(CC(=S)N3CCOCC3)cc2cc1OC`, the T/C is 90 % of control under setting [8] and 90 % of control under setting [9].
For the compound `CN(C)CCC[N+](C)(C)Cc1ccc(C[N+](C)(C)CCC[N+](C)(C)Cc2ccc(CCl)cc2)cc1`, the T/C reads like this: under setting [7], 106 % of control; (dose: 25.0 mg/kg/injection, schedule: Q01DX009 (ip), vehicle: saline) 92 % of control.
As to `COc1cc(/C=C/Cc2cc3c(cc2O)OCO3)cc(OC)c1OC`, the T/C reads like this: under setting [11], 95 % of control; under setting [12], 90 % of control; under setting [13], 89 % of control.
Take `O=C(CNC(=O)Nc1ccc(C2=NCCN2)cc1)Nc1ccc(C2=NCCN2)cc1`: the T/C is, setting by setting: (dose: 22.0 mg/kg/injection, schedule: Q01DX009 (ip), vehicle: saline with Tween-80) 95 % of control; (dose: 33.0 mg/kg/injection, schedule: Q01DX009 (ip), vehicle: saline with Tween-80) 113 % of control; (dose: 75.0 mg/kg/injection, schedule: Q01DX009 (ip), vehicle: saline with Tween-80) 154 % of control.
Regarding `COc1ccc(/C=N/NC(=O)C(=O)N/N=C/c2ccc(OC)c(S(=O)(=O)O)c2)cc1S(=O)(=O)O`, the T/C runs as follows: under setting [5], 102 % of control; under setting [6], 104 % of control; under setting [14], 109 % of control.
For the compound `CSc1nc(NC2OC(COC(C)=O)C(OC(C)=O)C(OC(C)=O)C2OC(C)=O)c(N=CC=Nc2c(NC3OC(COC(C)=O)C(OC(C)=O)C(OC(C)=O)C3OC(C)=O)nc(SC)[nH]c2=O)c(=O)[nH]1` (configuration not stated), the T/C runs as follows: under setting [11], 89 % of control; under setting [12], 99 % of control; under setting [13], 111 % of control.

The values above are taken from PubChem BioAssay AID330 (DTP/NCI, 2004).
